Test results as given in US20180296453A1, “Oral Care Product and Methods of Use and Manufacture Thereof” (Colgate-Palmolive Company, priority 2008, published 2018).

Assays:
S. sanguis = assay: Ammonia production by S. sanguis at pH 4.0; assay type: cell-based; conditions: 5 millimolar, pH 4.0, 0.1% sucrose, 37° C., 30 minutes
Experimental: An overnight culture of S. sanguis was grown at 37° C. in trypticase soy broth (Becton Dickinson, Sparks, Md.). The culture was centrifuged at 5,000 rpm for 5 minutes at 1 milliliter at a time into preweighed tubes in order to accumulate approximately 5 milligrams of wet pellet weight. The pellet was then resuspended into 20 millimolar potassium phosphate buffer (JT Baker, Phillipsburg, N.J.), pH 4.0, to simulate a stressed environment for the bacterial cell where ammonia would be produced for survival. The final concentration was 5 milligram per milliliter. To this final concentration, a 5 millimolar final concentration of L-arginine, L-citrulline, or L-ornithine was added along with a 0.1% final concentration of sucrose (VWR, West Chester, Pa.). This mixture was then incubated at 37° C. in a shaking water bath for 30 minutes before ammonia production was determined.
In order to analyze for ammonia, an Ammonia Assay kit was used from Diagnostic Chemicals Limited (Oxford, Conn.). The intended use of this specific kit is for the in vitro quantification of ammonia in plasma, but the procedure was modified in order to determine and quantify the ammonia production in plaque and/or bacteria.

[1] = cited from earlier work

Row | SMILES | Ammonia (S. sanguis; Mean of 6 trials) | Ammonia (S. sanguis; Trial 1) | Ammonia (S. sanguis; Trial 2) | Ammonia (S. sanguis; Trial 3) | Ammonia (S. sanguis; Trial 4) | Ammonia (S. sanguis; Trial 5) | Ammonia (S. sanguis; Trial 6) | solubility in water (in words) [1]
1 | N=C(N)NCCC[C@H](N)C(=O)O [L-Arginine, L-arginine] | 1.06 ppm | 0.509 ppm | 0.866 ppm | 2.20 ppm | 1.62 ppm | 0.5 ppm | 0.679 ppm | –
2 | NC(=O)NCCC[C@H](N)C(=O)O [L-Citrulline, L-citrulline] | 0.951 ppm | 0.185 ppm | 0.346 ppm | 0.332 ppm | 0.194 ppm | 0.226 ppm | 0.951 ppm | –
3 | NCCC[C@H](N)C(=O)O [L-Ornithine, L-ornithine] | 0.134 ppm | 0.185 ppm | 0.260 ppm | 0.047 ppm | 0.0 ppm | 0.181 ppm | 0.135 ppm | –
4 | Oc1cc(Cl)ccc1Oc1ccc(Cl)cc1Cl [triclosan, 5-chloro-2-(2,4-dichlorophenoxy)phenol] | – | – | – | – | – | – | – | only slightly soluble in water
